Read-outs that look alike come from different tables or passages of the source.
Key:
in vivo = details: for AUCINF D: mouse, i.v., HU308 2 mg/kg, RO6871304 0.5 mg/kg
Experimental: Mouse Pharmacokinetic Profiles
Male C57Bl/6 mice (Charles River, Fra nce) were used to study the pharmacokinetics of CB 2R ligands after i.v. and p.o. administration. Animals were up to 12 weeks of age. All animal studies in this section were performed at Hoffmann-La Roche and approved by the Federal Food Safety and Veterinary Office of the Swiss Confederation. Test compounds were formulated according to respective protocols either by dissolution (i.v.) or as aqueous suspensions in a glass potter until homogeneity was achieved (p.o.; formulated as a solution in ethanol/cremophor EL/ 0.9% NaCl (5%/5%/90%)). Formulations were injected i.v. using a 30G needle in the lateral tail vein of mice using a volume of 50 μL in the dose indicated. For p.o. applications, animals were gavaged using a volume of 100 μL in the dose indicated. At the following time points blood was drawn into EDTA: 0.08, 0.25, 0.5, 1, 2, 4, 7 h (for p.o. the first time point was omitted). Six animals were used for each compound.
Animals were distributed randomly over the time course and at each time point, a volume of 100 μL of blood was taken. Quantitative plasma measurement of the compound was performed by LC-MS/MS analysis. Pharmacokinetic analysis was performed using Phoenix WinNonlin 6.4 software using a non-compartmental approach consistent with the route of administration. For assessment of the exposure, Cmax, Tmax, and area under the curve (AUC) were determined from the serum concentration profiles. Parameters (clearance, […], T1/2) were estimated using nominal sampling times relative to the start of each administration. Co (initial concentration) was extrapolated from the first concentration measured following i.v. administration. […]

human CB2R = target: T1, human CB2R (Homo sapiens, UniProt P34972); assay: cAMP assay, CHO cells expressing human CB2R; type: cell-based
T1 construct: bgal (beta-galactosidase fragment of the PathHunter system, named only in the cell line's name); host or cells: CHO-K1 (CHOK1hCB2_bgal)
T1 sequence (P34972 whole entry, the tested form may be a part): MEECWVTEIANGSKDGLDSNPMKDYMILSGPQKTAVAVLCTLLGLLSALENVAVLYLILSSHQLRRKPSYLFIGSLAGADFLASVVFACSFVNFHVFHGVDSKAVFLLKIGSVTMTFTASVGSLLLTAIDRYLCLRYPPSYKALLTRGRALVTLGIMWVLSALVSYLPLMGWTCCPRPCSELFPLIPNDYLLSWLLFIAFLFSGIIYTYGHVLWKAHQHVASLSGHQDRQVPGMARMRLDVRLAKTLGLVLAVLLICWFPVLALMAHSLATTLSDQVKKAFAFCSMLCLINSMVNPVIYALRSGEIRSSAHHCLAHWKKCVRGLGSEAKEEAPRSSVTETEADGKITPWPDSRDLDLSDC
Experimental: The effect of ligands on the forskolin-stimulated accumulation of cAMP was determined using the LANCE ULTRA cAMP kit as per the manufacturer’s instruction (Perkin-Elmer Life Sciences, Boston, MA, USA).
For human CB2R and CB1R, cAMP assays were performed using CHO cells stably expressing human CB2R or human CB1R (DiscoveRx, Fremont, CA, USA) using a cAMP-Nano-TRF detection kit (Roche Diagnostics, Penzberg, Germany). Cells were seeded 17–24 h prior to the experiment at a density of 3 × 10^4 cells per well in a black 96-well plate with clear flat bottom (Corning, Wiesbaden, Germany) and incubated in 5% CO2 at 37 °C in a humidified incubator. The growth medium was exchanged with Krebs Ringer bicarbonate buffer with 1 mmol/L 3-isobutyl-1-methylxanthine (IBMX), 0.1% fatty acid-free BSA and incubated at 30 °C for 60 min. Agonist was added to a final assay volume of 100 μL and the mixture was incubated for 30 min at 30 °C. The assay was stopped by the addition of 50 μL 3 × lysis reagent and shaken for 2 h at room temperature. The time-resolved fluorescence energy transfer was measured using an LF502 Nanoscan FLT (IOM, Berlin, Germany), equipped with a laser as excitation source. cAMP content was determined from the function of a standard curve spanning from 10 to 0.13 nmol/L cAMP. Efficacies are expressed as percent relative to 1 µM CP55940.

[1] = set-up: method as in earlier work; details: * previously published, cited from earlier work
[2] = Plasma protein binding (equilibrium dialysis), human plasma; type: in vitro ADME; details: pH 7.4, read-out: Plasma Protein Binding: FREE Fraction human
Experimental: Pooled and frozen plasma from selected species were obtained from commercial suppliers […]
(human […] and mouse […]3-C57; BioreclamationIV, NY, USA). Teflon […]
equilibrium dialysis plates (96-well, 150 μL, half-cell capacity) and cellulose membranes (12–14 kDa molecular weight cut-off) were purchased from HT-Dialysis (Gales Ferry, Connecticut). Both biological matrix and phosphate buffer pH were adjusted to 7.4 on the day of the experiment. The reference substance was diazepam.
The determination of unbound compound was performed using a 96-well format equilibrium dialysis device with a molecular weight cut-off membrane of 12 to 14 kDa. […]
At equilibrium, the unbound drug concentration in the biological matrix compartment of the equilibrium dialysis apparatus is the same as the concentration of the compound in the buffer compartment. Thus, the percent unbound fraction was be calculated by determining the compound concentrations in the buffer and matrix compartments after dialysis as follows: % fraction unbound = 100 × buffer concentration after dialysis/matrix concentration after dialysis. […]
P-glycoprotein (permeability-glycoprotein (P-gp), also known as multidrug resistance protein 1) is the most studied and best characterized drug transporter. […] The effect of P-gp was measured by expressing the efflux ratio of the unidirectional A > B and B > A Papp values. […]

[3] = male, C57Bl/6, mouse, in vivo, iv
[4] = male, C57Bl/6, mouse, in vivo, iv, 2 mg/kg

Work on `CCCCCCC(C)(C)c1cc(OC)c([C@H]2C=C(CO)[C@H]3C[C@@H]2C3(C)C)c(OC)c1` [HU308, {(1S,4S,5S)-4-[2,6-Dimethoxy-4-(2-methyloctan-2-yl)phenyl]-6,6-dimethylbicyclo[3.1.1]hept-2-en-2-yl}methanol, reference compound] yielded a half-life (in vivo; [3]) of 2.15 h, a Vd (in vivo; [4]) of 2.9 L/kg and a clearance (in vivo; [4]) of 36.6 mL/min/kg. The “AUCINF D” value (in vivo) was 456 ng·kg·h/mL/mg.

For `CCCCCCC(C)(C)c1cc(OC)c(C2=C[C@H]3CC[C@]2(CO)C3(C)C)c(OC)c1` [HU910, {(1S,4R)-2-[2,6-dimethoxy-4-(2-methyloctan-2-yl)phenyl]-7,7-dimethylbicyclo[2.2.1]hept-2-en-1-yl}methanol, reference compound], the “hCB1R cAMP EC50/hCB2R cAMP EC50” value (human CB2R) was >2500.

For `CNC(=O)[C@@H](NC(=O)c1cc(OCC2(C)COC2)c(C2CC2)cn1)C(C)(C)C` [RO6851228, 5-Cyclopropyl-N-[(2S)-3,3-dimethyl-1-(methylamino)-1-oxobutan-2-yl]-4-[(3-methyloxetan-3-yl)methoxy]pyridine-2-carboxamide], the “pKa (basic)” value [1] is given as 3.3.

For `Cc1nc([C@](C)(CC2CC2)NC(=O)c2cc(OCC(F)(F)F)c(C3CC3)cn2)no1` [RO6871085, 5-Cyclopropyl-N-[(2S)-1-cyclopropyl-2-(5-methyl-1,2,4-oxadiazol-3-yl)propan-2-yl]-4-(2,2,2-trifluoroethoxy)pyridine-2-carboxamide], the “pKa (acidic, calculated)” value ([1]; calculated) is given as 10.1 and the “pKa (basic, calculated)” value ([1]; calculated) is given as 2.6.

With `CC(C)(C)c1nc(N2CC[C@H](O)C2)c2nnn(Cc3nnnn3C3CC3)c2n1` [RO6871304, (3S)-1-{5-tert-butyl-3-[(1-cyclopropyl-1H-tetrazol-5-yl)methyl]-3H-[1,2, 3]triazolo[4,5-d]pyrimidin-7-yl}pyrrolidin-3-ol] the fraction unbound at 5 h, 1000 nM [2] was 0.13, the “hCB1R cAMP EC50/hCB2R cAMP EC50” value (human CB2R; functional selectivity) was >10,000 and the half-life (in vivo; [3]) was 0.32 h. The “AUCINF D” value (in vivo) was 456 ng·kg·h/mL/mg.
